Data reported in patent US9874558B2, “Immunoassay method less affected by impurities” (Konica Minolta, Inc., priority 2012, dated 2018).

Assays:
[1] = target: T1, Wisteria floribunda lectin (WFA) (Wisteria floribunda, UniProt A0A218PFP3); experiment: SPFS sandwich immunoassay of PSA with labeled WFA, added competing sugar chain compound, S/N ratio; conditions: PSA in commercially available serum, sugar chain compound 0.1% by weight in PBS for 10 minutes, none: S/N 2
T1 sequence (A0A218PFP3 31-273): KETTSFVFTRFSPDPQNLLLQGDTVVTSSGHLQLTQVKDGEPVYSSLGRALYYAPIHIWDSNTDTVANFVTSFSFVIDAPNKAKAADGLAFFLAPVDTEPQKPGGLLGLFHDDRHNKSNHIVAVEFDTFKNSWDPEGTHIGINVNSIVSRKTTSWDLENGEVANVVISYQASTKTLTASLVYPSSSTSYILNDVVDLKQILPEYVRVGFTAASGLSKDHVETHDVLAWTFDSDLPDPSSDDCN
Description: Antigen Addition Step: To one of the thus prepared sensor chip, 0.5 mL of a solution having a PSA concentration of 1.0 ng/mL, which was prepared by diluting the LNCaP culture supernatant with a commercially available serum (manufactured by Kohjin Bio Co., Ltd.), was added and circulated for 25 minutes in place of PBS. To the other sensor chip, a commercially available serum (manufactured by Kohjin Bio Co., Ltd.) containing no LNCaP culture supernatant was added and circulated for 25 minutes.
Washing Step: Each sensor chip was washed by circulating TBS containing 0.05% by weight of Tween 20 as a transfer liquid. Here, using a laser light source, the metal thin films of the sensor chip were irradiated with laser light having a wavelength of 635 nm, whose photon amount was adjusted by an optical filter (manufactured by Sigmakoki Co., Ltd.), through a prism (“S-LAL 10” manufactured by Ohara Inc. (refractive index [n]=1.72)), and the blank fluorescence was detected using a CCD image sensor (manufactured by Texas Instruments Inc.) equipped with a cut filter for cutting light having wavelengths of non-fluorescent components and an objective lens (×20). […]
Further, also for each of the following cases, the same experiment as described above was carried out and the S/N ratio was determined: […]

[2] = target: T2, Lens culinaris lectin (LCA) (Lens culinaris, UniProt P02870); experiment: Dissociation constant (Kd) with labeled LCA lectin; format: binding; conditions: between sugar chain compound to be added and labeled lectin LCA; target compound AFP; read-out: Dissociation constant (Kd) x
T2 sequence (P02870 31-211 limits assumed): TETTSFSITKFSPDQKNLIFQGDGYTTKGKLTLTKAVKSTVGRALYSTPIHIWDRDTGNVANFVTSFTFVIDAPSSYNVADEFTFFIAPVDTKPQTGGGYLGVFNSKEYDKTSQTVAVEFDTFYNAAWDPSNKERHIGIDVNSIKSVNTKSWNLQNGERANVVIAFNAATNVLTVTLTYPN
T2 sequence (P02870 218-269 limits assumed): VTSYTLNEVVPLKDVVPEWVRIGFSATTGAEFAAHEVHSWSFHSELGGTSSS
Description: In the present invention, the dissociation constant is defined as follows.
The binding between a sugar chain compound (A) and a lectin (B) occurs through a reversible reaction, and the following formula is established in an equilibrium state (wherein, [A] represents the concentration of the sugar chain compound (mol/L); [B] represents the concentration of the lectin (mol/L); and [A−B] represents the concentration of conjugates formed between the sugar chain compound and the lectin (mol/L)). [A−B]⇄[A]+[B]
In this case, the dissociation constant, Kd, between the sugar chain compound (A) and the lectin (B) is represented by the following equation: Kd=[A]×[B]/[A−B]

[3] = target: T2, Lens culinaris lectin (LCA); experiment: SPFS sandwich immunoassay of AFP with labeled LCA, added competing sugar chain compound, S/N ratio; conditions: AFP 3.0 ng/mL in commercially available serum, sugar chain compound 0.1% by weight in PBS for 10 minutes, none: S/N 2

## CC(C)CCCC(C)C1CCC2C3CC=C4CC(OC(=O)NCCOC5OC(C)[C@@H](O)C(O)[C@H]5O)CC[C@]4(C)C3CC[C@]12C (stereo partly drawn) [Fuc-2-Chol]
[1]
  S/N: 3

## CC(C)CCCC(C)C1CCC2C3CC=C4CC(OC(=O)NCCOC5OC(CO)[C@H](O)C(O)[C@@H]5O)CC[C@]4(C)C3CC[C@]12C (stereo partly drawn) [Man-2-Chol]
[2]
  Kd: 220 µM
[3]
  S/N: 3
